We go through two compounds from US8399498B2, “Animal ectoparasite-controlling agent” (Sumitomo Chemical Company, Limited, priority 2010, dated 2013).

Bounds are passed on as bounds.

What all share (format): in vivo
Experiment [1] concerns Haemaphysalis longicornis. Description: Dropping application against dog-infested ticks. The conditions noted are these: dog (beagle), dropping application on skin of neck and back, 20 mg/kg. The method, then: The previous day before dropping application, 100 test ticks (Haemaphysalis longicornis, young ticks) were deposited on a dog (beagle). Before the dropping application, infested ticks were counted.
Each (1.5 g) of the present hydrazide compound (1) and Comparative compound (52) was dissolved in diethylene glycol monoethyl ether (6.0 g) to prepare a test solution. Said test solution was directly dropped on the skin of the neck and back of the dog while pushing aside fur thereon at a rate of 0.1 ml per 1 kg of the dog's body weight (dose amount: 20 mg/kg). This is referred to as a test group. On the other hand, diethylene glycol monoethyl ether alone was applied dropwise to a placebo group.
Two (2) days after the application, the number of living ticks, which were infesting the dogs, was examined. When the examination was completed, all infested ticks were removed from the dogs.
The infestation rate and control rate were calculated by the following formulae:
Method of calculating infestation rate and control rate at the initial stage (2 days) after the application: Infestation rate (%) at X days after application=(number of living ticks at X days/number of living ticks before application)×100 Control rate (%) at X days after application=(infestation rate of test group before application−infestation rate of test group at X days)/infestation rate of test group before application×100 […]

Experiment [2] deals with Haemaphysalis longicornis. Description: Dropping application against mouse-infested ticks. Conditions: 0.1% w/v solution 200 μL dropwise on whole body surface, 2 days after application. The method, then: The previous day before dropping application, 30 test ticks (Haemaphysalis longicornis, young ticks) were deposited on a mouse. Before the dropping application, uninfested ticks were removed.
The present hydrazide compound (1) (5 mg) was dissolved in a mixture (5 mL) of propylene carbonate and diethylene glycol monoethyl ether in equal amounts to prepare a 0.1% w/v solution. Said solution (200 μL) was applied dropwise to the whole body surface of a mouse with a pipette. To a control group, the mixture (200 μL) alone was applied. Each application was repeated 3 times per group.
Two (2) days after the application, the number of dead ticks was examined and the mortality was calculated by the following formula: Mortality (%)=100×(number of dead ticks/infested ticks before dropping application)

For experiment [3], the system named is Haemaphysalis longicornis. Description: Oral administration against mouse-infested ticks. The conditions noted are these: test solution 20 mg/10 mL at 10 mL per 1 kg body weight, 2 days after administration. Here is the method: The previous day before oral administration, 30 test ticks (Haemaphysalis longicornis, young ticks) were deposited on a mouse. Before the oral administration, uninfested ticks were removed.
The present hydrazide compound (1) (20 mg) was dissolved in dimethylformamide (680 mg), and thereto a corn oil was added to prepare a test solution (10 mL). Said test solution was orally administered to the mouse at the rate of 10 mL per 1 kg of the body weight of the mouse with a gastric sonde. To a control group, a 7% dimethylformamide/corn oil solution alone was orally administered. Each administration was repeated 3 times per group.
Two (2) days after the administration, the number of dead ticks was examined and the mortality was calculated by the following formula: Mortality (%)=100×(number of dead ticks/infested ticks before oral administration)

On to `CC(=O)NNc1cc(C2=NOC(c3cc(Cl)cc(Cl)c3)(C(F)(F)F)C2)ccc1Cl` (stereo not shown) [Comparative compound (52), N′-{5-[5-(3,5-dichlorophenyl)-5-trifluoromethyl-4,5-dihydroisoxazol-3-yl]-2-chlorophenyl}acetohydrazide, reference compound], for which the “Tick control rates (%) at 2 days after the application” value in experiment [1] worked out at 44%.

As to `COCC(=O)NNc1cc(C2=NOC(c3cc(Cl)cc(Cl)c3)(C(F)(F)F)C2)ccc1Cl` (stereo not shown) [Compound (1), N′-{2-chloro-5-[5-(3,5-dichlorophenyl)-5-trifluoromethyl-4,5-dihydroisoxazol-3-yl]phenyl}methoxyacetohydrazide], the Mortality in experiment [2] is not below 70%; in experiment [3] it was not below 90%. The “Tick control rates (%) at 2 days after the application” value in experiment [1] was 94%.
